Measured values published in article PMC11912122, “Gut in Tube—Continuous Measurement of Metabolic Crosstalk between Cell Populations in Heterogeneous Samples by NMR Imaging” (Analytical Chemistry, 2025).
Square brackets hold non-standard residues; d marks the D form. Peptide text beside a SMILES is read from it. Phe(4-F) = N[C@@H](Cc1ccc(F)cc1)C(=O)O

Tested on: Cocultures of colonocytes (Caco-2, HT29, T84, SW620)
Test: Cell viability assay (MTT)
Type: cell-based, human
Settings: peptide 1.6 mg/mL, 37 °C, 3 h, OD590, % viability vs control, n=3
Description: Individual cell lines (Caco-2, HT29, T84, and SW620) were grown from frozen stocks, prepared at ca. 1 million/mL. Cells were seeded in a T-75 tissue culture flask, passaged once, and matured to ca. 10 million/mL in a T-175 flask in complete media. Cells were rinsed twice with Ca^2+/Mg^2+-free PBS (25 mL, CAS D8537), trypsinized, the trypsin deactivated with P/S-free complete media, all four lineages mixed in a 1:1:1:1 ratio, pelleted (300 rcf, 5 min), and resuspended in alginate (sodium alginate, CAS 9005–38–3, 1% w/v in P/S-free complete media). The cell suspension was extruded through a 200 μL pipet tip dropwise into cold CaCl2 (0.3 M in phosphate-buffered saline, PBS, CAS D8662, 15 °C) under stirring (100 r.p.m.). The cell spheres (Figures S1 and S2, Supporting Information (SI)) were removed from the CaCl2 solution, washed, and stored in P/S-free complete media before further use.
The effect of the peptide on cell viability was measured using a cell proliferation kit (CAS 11465007001). 3-[4,5-Dimethylthiazole-2-yl]-2,5-diphenyltetrazolium bromide (MTT) was solubilized in PBS (5 mg/mL) and filter-sterilized (0.22-μm). Cocultures of colonocytes were grown in phenol red-free complete media in 24-well plates to ca. 50% confluency. […] The absorbance (OD590) in each well was read, and % viability was calculated against the control (Figure S6, SI).

In the case of `C[C@H](NC(=O)[C@@H](N)Cc1ccc(F)cc1)C(=O)N[C@@H](Cc1c[nH]cn1)C(=O)N[C@@H](Cc1c[nH]c2ccccc12)C(N)=O` [p-F-Phe-Ala-His-Trp] (H-[Phe(4-F)]AHW-NH2), the “effect on colonocyte viability” value is reported as “no significant (p > 0.05) effect and ns”.
